# Test results taken from paper PMC8920385, “Design, synthesis and biological evaluation of a series of dianilinopyrimidines as EGFR inhibitors” (Journal of Enzyme Inhibition and Medicinal Chemistry, 2022).
# Assays:
# [1] = system: A549 cells; experiment: Cytotoxicity evaluation (MTT assay), A549; assay type: cell-based; conditions: Homo sapiens, mean ± SD of three replicates
# [2] = system: HepG2 cells; experiment: Cytotoxicity evaluation (MTT assay), HepG2; assay type: cell-based; conditions: Homo sapiens, mean ± SD of three replicates
# [3] = system: PC-3 cells; experiment: Cytotoxicity evaluation (MTT assay), PC-3; assay type: cell-based; conditions: Homo sapiens, mean ± SD of three replicates
# [4] = system: L02 cells; experiment: Cytotoxicity evaluation (MTT assay), L02 normal cells; conditions: Homo sapiens, L02, read-out: IC50 L02
# Experimental: Three tumour cells with high expression of EGFR^wt were used to test the antitumor activity of the compounds including, A549 (Human non-small-cell lung cancer cell line) cells, PC-3 (Human prostate cancer cell line) cells, and HepG2 (Human hepatocellular carcinomas cell line) cells. They were all purchased from the Shanghai Cell Bank of the Chinese Academy of Sciences. L02 (normal human liver cell line) cells were also used to evaluate the cytotoxicity. […] The IC50 values were calculated from the dose − response curve under Graph-Pad Prism.
# [5] = target: T1, wild type EGFR tyrosine kinase (EGFR^wt) (Homo sapiens, UniProt P00533); experiment: In vitro EGFR^wt-TK assay (ELISA); assay type: biochemical; conditions: mean ± SD of three replicates; for inhibition at 1 µM: read-out: EGFR^wt-TK inhibition rate; for inhibition at 1 µM / EGFR^wt-TK inhibition rate: 1 μM
# T1 construct: purchased PTM Bio; Co., Ltd
# T1 sequence (P00533 25-1210): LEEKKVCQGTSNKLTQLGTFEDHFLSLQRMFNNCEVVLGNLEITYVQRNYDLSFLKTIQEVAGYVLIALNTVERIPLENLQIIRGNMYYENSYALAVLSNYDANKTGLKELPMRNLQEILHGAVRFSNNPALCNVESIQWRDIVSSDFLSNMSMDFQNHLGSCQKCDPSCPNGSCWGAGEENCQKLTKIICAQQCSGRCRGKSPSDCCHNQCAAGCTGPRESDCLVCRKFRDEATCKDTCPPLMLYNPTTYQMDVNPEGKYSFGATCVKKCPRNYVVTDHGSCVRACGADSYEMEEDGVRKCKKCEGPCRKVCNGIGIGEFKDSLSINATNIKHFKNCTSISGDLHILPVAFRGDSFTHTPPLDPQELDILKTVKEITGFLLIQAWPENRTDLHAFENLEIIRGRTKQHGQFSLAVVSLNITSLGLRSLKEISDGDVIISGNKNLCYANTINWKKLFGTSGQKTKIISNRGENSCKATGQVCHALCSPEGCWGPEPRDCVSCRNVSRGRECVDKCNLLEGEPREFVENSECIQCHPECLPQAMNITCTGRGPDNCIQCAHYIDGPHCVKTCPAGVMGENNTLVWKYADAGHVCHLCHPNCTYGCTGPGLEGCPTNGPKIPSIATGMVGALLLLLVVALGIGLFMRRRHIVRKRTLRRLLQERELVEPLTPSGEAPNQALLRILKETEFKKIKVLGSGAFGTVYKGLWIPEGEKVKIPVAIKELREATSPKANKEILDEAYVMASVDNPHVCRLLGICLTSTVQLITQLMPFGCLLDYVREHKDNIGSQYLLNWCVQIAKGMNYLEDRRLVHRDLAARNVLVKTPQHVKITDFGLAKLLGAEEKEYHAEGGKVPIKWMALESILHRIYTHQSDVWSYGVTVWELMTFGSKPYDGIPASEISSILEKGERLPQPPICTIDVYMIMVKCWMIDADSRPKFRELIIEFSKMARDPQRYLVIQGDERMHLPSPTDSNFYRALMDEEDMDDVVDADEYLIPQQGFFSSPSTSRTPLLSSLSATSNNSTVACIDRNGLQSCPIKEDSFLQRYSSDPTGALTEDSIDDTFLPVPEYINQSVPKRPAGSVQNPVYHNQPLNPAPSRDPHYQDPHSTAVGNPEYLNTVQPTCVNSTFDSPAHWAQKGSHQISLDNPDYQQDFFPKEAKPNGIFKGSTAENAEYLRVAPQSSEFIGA
Structure (SMILES),inhibition at 1 µM [5] [%],melting point [°C],EGFR^wt-TK inhibition rate [5] [%],IC50 [5] [µM],IC50 [1] [µM],IC50 [2] [µM],IC50 [3] [µM],IC50 [4] [µM]
"CNC(=O)c1ccsc1Nc1nc(Nc2ccc(NC(=O)c3ccc(OC)cc3)cc2)ncc1C(F)(F)F [4a, 2-{2-[4-(4-Methoxy-benzoylamino)-phenylamino]-5-trifluoromethyl-pyrimidin-4-ylamino}-thiophene-3-carboxylic acid methylamide]",31.6 ± 3.27,> 250,–,–,9.32 ± 0.68,11.5 ± 0.77,12.3 ± 0.89,> 40
"CNC(=O)c1ccsc1Nc1nc(Nc2ccc(NC(=O)c3ccccc3F)cc2)ncc1C(F)(F)F [4b, 2-{2-[4-(2-Fluoro-benzoylamino)-phenylamino]-5-trifluoromethyl-pyrimidin-4-ylamino}-thiophene-3-carboxylic acid methylamide]",> 50,224.8 to 226.3,52.08 ± 1.93,0.89 ± 0.12,4.33 ± 0.59,7.62 ± 0.46,7.81 ± 0.53,> 40
"CNC(=O)c1ccsc1Nc1nc(Nc2ccc(NC(=O)c3ccc(F)cc3)cc2)ncc1C(F)(F)F [4d, 2-{2-[4-(4-Fluoro-benzoylamino)-phenylamino]-5-trifluoromethyl-pyrimidin-4-ylamino}-thiophene-3-carboxylic acid methylamide]",7.59 ± 0.25,233.5 to 235.3,–,–,> 20,> 20,> 20,> 40
"CNC(=O)c1ccsc1Nc1nc(Nc2ccc(NC(=O)c3ccc(F)c(F)c3)cc2)ncc1C(F)(F)F [4e, 2-{2-[4-(3,4-Difluoro-benzoylamino)-phenylamino]-5-trifluoromethyl-pyrimidin-4-ylamino}-thiophene-3-carboxylic acid methylamide]",27.9 ± 1.34,244.3 to 245.9,–,–,> 20,> 20,> 20,> 40
"CNC(=O)c1ccsc1Nc1nc(Nc2ccc(NC(=O)c3cccc(C(F)(F)F)c3)cc2)ncc1C(F)(F)F [4f, 2-{5-Trifluoromethyl-2-[4-(3-trifluoromethyl-benzoylamino)-phenylamino]-pyrimidin-4-ylamino}-thiophene-3-carboxylic acid methylamide]",30.8 ± 1.09,> 250,–,–,6.14 ± 0.78,8.36 ± 0.49,8.51 ± 0.64,> 40
"CNC(=O)c1ccsc1Nc1nc(Nc2ccc(Nc3c(NC(C)C)c(=O)c3=O)cc2)ncc1C(F)(F)F [6d, 2-{2-[4-(2-Isopropylamino-3,4-dioxo-cyclobut-1-enylamino)-phenylamino]-5-trifluoromethyl-pyrimidin-4-ylamino}-thiophene-3-carboxylic acid methylamide]",29.1 ± 1.03,> 250,–,–,10.1 ± 1.96,14.1 ± 1.28,> 20,> 40
"CNC(=O)c1ccsc1Nc1nc(Nc2ccc(Nc3c(NC4CCCC4)c(=O)c3=O)cc2)ncc1C(F)(F)F [6e, 2-{2-[4-(2-Cyclopentylamino-3,4-dioxo-cyclobut-1-enylamino)-phenylamino]-5-trifluoromethyl-pyrimidin-4-ylamino}-thiophene-3-carboxylic acid methylamide]",> 50,> 250,53.17 ± 3.05,0.74 ± 0.1,7.14 ± 0.92,9 ± 0.78,9.24 ± 0.86,> 40
"CNC(=O)c1ccsc1Nc1nc(Nc2ccc(Nc3c(NC4CCCCC4)c(=O)c3=O)cc2)ncc1C(F)(F)F [6f, 2-{2-[4-(2-Cyclohexylamino-3,4-dioxo-cyclobut-1-enylamino)-phenylamino]-5-trifluoromethyl-pyrimidin-4-ylamino}-thiophene-3-carboxylic acid methylamide]",34.1 ± 1.29,> 250,–,–,18.1 ± 2.45,> 20,> 20,> 40
"CNC(=O)c1ccsc1Nc1nc(Nc2ccc(Nc3c(NC4CCC(O)CC4)c(=O)c3=O)cc2)ncc1C(F)(F)F (stereo not drawn) [6g, 2-(2-{4-[2–(4-Hydroxy-cyclohexylamino)-3,4-dioxo-cyclobut-1-enylamino]-phenylamino}-5-trifluoromethyl-pyrimidin-4-ylamino)-thiophene-3-carboxylic acid methylamide]",9.27 ± 0.25,> 250,–,–,> 20,> 20,> 20,> 40
"CNC(=O)c1ccsc1Nc1nc(Nc2ccc(Nc3c(NC4CCN(C)CC4)c(=O)c3=O)cc2)ncc1C(F)(F)F [6h, 2-(2-{4-[2-(1-Methyl-piperidin-4-ylamino)-3,4-dioxo-cyclobut-1-enylamino]-phenylamino}-5-trifluoromethyl-pyrimidin-4-ylamino)-thiophene-3-carboxylic acid methylamide]",10.6 ± 0.93,> 250,–,–,> 20,> 20,> 20,> 40

# Continued, in another order:
inhibition at 1 µM [5] [%],melting point [°C],EGFR^wt-TK inhibition rate [5] [%],IC50 [5] [µM],Structure (SMILES),IC50 [1] [µM],IC50 [2] [µM],IC50 [3] [µM],IC50 [4] [µM]
15.3 ± 0.48,> 250,–,–,"CCCNc1c(Nc2ccc(Nc3ncc(C(F)(F)F)c(Nc4sccc4C(=O)NC)n3)cc2)c(=O)c1=O [6a, 2-{2-[4-(3,4-Dioxo-2-propylamino-cyclobut-1-enylamino)-phenylamino]-5-trifluoromethyl-pyrimidin-4-ylamino}-thiophene-3-carboxylic acid methylamide]",> 20,> 20,> 20,> 40
17.4 ± 0.32,> 250,–,–,"CCCCCCNc1c(Nc2ccc(Nc3ncc(C(F)(F)F)c(Nc4sccc4C(=O)NC)n3)cc2)c(=O)c1=O [6b, 2-{2-[4-(2-Hexylamino-3,4-dioxo-cyclobut-1-enylamino)-phenylamino]-5-trifluoromethyl-pyrimidin-4-ylamino}-thiophene-3-carboxylic acid methylamide]",> 20,> 20,> 20,> 40
16.6 ± 0.21,> 250,–,–,"CNC(=O)c1ccsc1Nc1nc(Nc2ccc(Nc3c(NCCO)c(=O)c3=O)cc2)ncc1C(F)(F)F [6c, 2–(2-{4-[2-(2-Hydroxy-ethylamino)-3,4-dioxo-cyclobut-1-enylamino]-phenylamino}-5-trifluoromethyl-pyrimidin-4-ylamino)-thiophene-3-carboxylic acid methylamide]",> 20,> 20,> 20,> 40
> 50,> 250,57.37 ± 1.82,0.66 ± 0.13,"CNC(=O)c1ccsc1Nc1nc(Nc2ccc(Nc3c(NCCNC(=O)OC(C)(C)C)c(=O)c3=O)cc2)ncc1C(F)(F)F [6i, [2-(2-{4-[4-(3-Methylcarbamoyl-thiophen-2-ylamino)-5-trifluoromethyl-pyrimidin-2-ylamino]-phenylamino}-3,4-dioxo-cyclobut-1-enylamino)-ethyl]-carbamic acid tert-butyl ester]",3.11 ± 0.48,5.24 ± 0.51,5.33 ± 0.47,> 40
6.86 ± 0.11,> 250,–,–,"CCC(=O)NCCNc1c(Nc2ccc(Nc3ncc(C(F)(F)F)c(Nc4sccc4C(=O)NC)n3)cc2)c(=O)c1=O [8a, 2-(2-{4-[3,4-Dioxo-2-(2-propionylamino-ethylamino)-cyclobut-1-enylamino]-phenylamino}-5-trifluoromethyl-pyrimidin-4-ylamino)-thiophene-3-carboxylic acid methylamide]",> 20,> 20,> 20,> 40
7.92 ± 0.54,> 250,–,–,"CNC(=O)c1ccsc1Nc1nc(Nc2ccc(Nc3c(NCCNC(=O)C(C)C)c(=O)c3=O)cc2)ncc1C(F)(F)F [8b, 2-(2-{4-[2-(2-Isobutyrylamino-ethylamino)-3,4-dioxo-cyclobut-1-enylamino]-phenylamino}-5-trifluoromethyl-pyrimidin-4-ylamino)-thiophene-3-carboxylic acid methylamide]",> 20,> 20,> 20,> 40
28.1 ± 1.27,> 250,–,–,"CNC(=O)c1ccsc1Nc1nc(Nc2ccc(Nc3c(NCCNC(=O)C4CCCC4)c(=O)c3=O)cc2)ncc1C(F)(F)F [8c, 2-[2–(4-{2-[2-(Cyclopentanecarbonyl-amino)-ethylamino]-3,4-dioxo-cyclobut-1-enylamino}-phenylamino)-5-trifluoromethyl-pyrimidin-4-ylamino]-thiophene-3-carboxylic acid methylamide]",7.32 ± 0.65,9.54 ± 0.91,9.69 ± 1.13,> 40
29 ± 1.55,> 250,–,–,"CNC(=O)c1ccsc1Nc1nc(Nc2ccc(Nc3c(NCCNC(=O)C4CCCCC4)c(=O)c3=O)cc2)ncc1C(F)(F)F [8d, 2-[2-(4-{2-[2-(Cyclohexanecarbonyl-amino)-ethylamino]-3,4-dioxo-cyclobut-1-enylamino}-phenylamino)-5-trifluoromethyl-pyrimidin-4-ylamino]-thiophene-3-carboxylic acid methylamide]",6.14 ± 0.72,8.28 ± 0.69,8.35 ± 0.74,> 40
